Experimental data published in ChEMBL document CHEMBL1240393, “Full Resistance and decreased susceptibility to carbapenems in IMP-13-producing Pseudomonas aeruginosa isolates from an outbreak” (2010).
In brackets after ≈: the same amount, converted by molar mass.

How the values were obtained:
[1] = tested on: Pseudomonas aeruginosa; experiment: Antibacterial activity against beta-lactamase IMP-13 producing Pseudomonas aeruginosa isolate 7; assay type: functional
[2] = tested on: Pseudomonas aeruginosa; experiment: Antibacterial activity against beta-lactamase IMP-13 producing Pseudomonas aeruginosa isolate 10; assay type: functional
[3] = tested on: Pseudomonas aeruginosa; experiment: Antibacterial activity against beta-lactamase IMP-13 producing Pseudomonas aeruginosa isolate 2 assessed as zone of inhibition by disk diffusion assay; assay type: functional
[4] = tested on: Pseudomonas aeruginosa; experiment: Antibacterial activity against beta-lactamase IMP-13 producing Pseudomonas aeruginosa isolate 3 assessed as zone of inhibition by disk diffusion assay; assay type: functional
[5] = tested on: Pseudomonas aeruginosa; experiment: Antibacterial activity against beta-lactamase IMP-13 producing Pseudomonas aeruginosa isolate 5 assessed as zone of inhibition by disk diffusion assay; assay type: functional
[6] = tested on: Pseudomonas aeruginosa; experiment: Antibacterial activity against beta-lactamase IMP-13 producing Pseudomonas aeruginosa isolate 15 assessed as zone of inhibition by disk diffusion assay; assay type: functional
[7] = tested on: Pseudomonas aeruginosa; experiment: Antibacterial activity against beta-lactamase IMP-13 producing Pseudomonas aeruginosa isolate 8; assay type: functional
[8] = tested on: Pseudomonas aeruginosa; experiment: Antibacterial activity against beta-lactamase IMP-13 producing Pseudomonas aeruginosa isolate 1; assay type: functional
[9] = tested on: Pseudomonas aeruginosa; experiment: Antibacterial activity against beta-lactamase IMP-13 producing Pseudomonas aeruginosa isolate 16 assessed as zone of inhibition by disk diffusion assay; assay type: functional
[10] = tested on: Pseudomonas aeruginosa; experiment: Antibacterial activity against beta-lactamase IMP-13 producing Pseudomonas aeruginosa isolate 17
[11] = tested on: Pseudomonas aeruginosa; experiment: Antibacterial activity against beta-lactamase IMP-13 producing Pseudomonas aeruginosa isolate 16; assay type: functional
[12] = tested on: Pseudomonas aeruginosa; experiment: Antibacterial activity against beta-lactamase IMP-13 producing Pseudomonas aeruginosa isolate 3; assay type: functional
[13] = tested on: Pseudomonas aeruginosa; experiment: Antibacterial activity against beta-lactamase IMP-13 producing Pseudomonas aeruginosa isolate 18 assessed as zone of inhibition by disk diffusion assay; assay type: functional
[14] = tested on: Pseudomonas aeruginosa; experiment: Antibacterial activity against beta-lactamase IMP-13 producing Pseudomonas aeruginosa isolate 1 assessed as zone of inhibition by disk diffusion assay; assay type: functional
[15] = tested on: Pseudomonas aeruginosa; experiment: Antibacterial activity against beta-lactamase IMP-13 producing Pseudomonas aeruginosa isolate 11; assay type: functional
[16] = tested on: Pseudomonas aeruginosa; experiment: Antibacterial activity against beta-lactamase IMP-13 producing Pseudomonas aeruginosa isolate 12 assessed as zone of inhibition by disk diffusion assay; assay type: functional
[17] = tested on: Pseudomonas aeruginosa; experiment: Antibacterial activity against beta-lactamase IMP-13 producing Pseudomonas aeruginosa isolate 14 assessed as zone of inhibition by disk diffusion assay; assay type: functional
[18] = tested on: Pseudomonas aeruginosa; experiment: Antibacterial activity against beta-lactamase IMP-13 producing Pseudomonas aeruginosa isolate 6
[19] = tested on: Pseudomonas aeruginosa; experiment: Antibacterial activity against beta-lactamase IMP-13 producing Pseudomonas aeruginosa isolate 12; assay type: functional
[20] = tested on: Pseudomonas aeruginosa; experiment: Antibacterial activity against beta-lactamase IMP-13 producing Pseudomonas aeruginosa isolate 13 assessed as zone of inhibition by disk diffusion assay; assay type: functional
[21] = tested on: Pseudomonas aeruginosa; experiment: Antibacterial activity against beta-lactamase IMP-13 producing Pseudomonas aeruginosa isolate 8 assessed as zone of inhibition by disk diffusion assay; assay type: functional
[22] = tested on: Pseudomonas aeruginosa; experiment: Antibacterial activity against beta-lactamase IMP-13 producing Pseudomonas aeruginosa isolate 7 assessed as zone of inhibition by disk diffusion assay; assay type: functional
[23] = tested on: Pseudomonas aeruginosa; experiment: Antibacterial activity against beta-lactamase IMP-13 producing Pseudomonas aeruginosa isolate 17 assessed as zone of inhibition by disk diffusion assay; assay type: functional
[24] = tested on: Pseudomonas aeruginosa; experiment: Antibacterial activity against beta-lactamase IMP-13 producing Pseudomonas aeruginosa isolate 6 assessed as zone of inhibition by disk diffusion assay; assay type: functional
[25] = tested on: Pseudomonas aeruginosa; experiment: Antibacterial activity against beta-lactamase IMP-13 producing Pseudomonas aeruginosa isolate 4; assay type: functional
[26] = tested on: Pseudomonas aeruginosa; experiment: Antibacterial activity against beta-lactamase IMP-13 producing Pseudomonas aeruginosa isolate 11 assessed as zone of inhibition by disk diffusion assay; assay type: functional
[27] = tested on: Pseudomonas aeruginosa; experiment: Antibacterial activity against beta-lactamase IMP-13 producing Pseudomonas aeruginosa isolate 9
[28] = tested on: Pseudomonas aeruginosa; experiment: Antibacterial activity against beta-lactamase IMP-13 producing Pseudomonas aeruginosa isolate 5; assay type: functional
[29] = tested on: Pseudomonas aeruginosa; experiment: Antibacterial activity against beta-lactamase IMP-13 producing Pseudomonas aeruginosa isolate 15; assay type: functional
[30] = tested on: Pseudomonas aeruginosa; experiment: Antibacterial activity against beta-lactamase IMP-13 producing Pseudomonas aeruginosa isolate 4 assessed as zone of inhibition by disk diffusion assay; assay type: functional
[31] = tested on: Pseudomonas aeruginosa; experiment: Antibacterial activity against beta-lactamase IMP-13 producing Pseudomonas aeruginosa isolate 18
[32] = tested on: Pseudomonas aeruginosa; experiment: Antibacterial activity against beta-lactamase IMP-13 producing Pseudomonas aeruginosa isolate 9 assessed as zone of inhibition by disk diffusion assay; assay type: functional
[33] = tested on: Pseudomonas aeruginosa; experiment: Antibacterial activity against beta-lactamase IMP-13 producing Pseudomonas aeruginosa isolate 10 assessed as zone of inhibition by disk diffusion assay; assay type: functional
[34] = tested on: Pseudomonas aeruginosa; experiment: Antibacterial activity against beta-lactamase IMP-13 producing Pseudomonas aeruginosa isolate 2; assay type: functional
[35] = tested on: Pseudomonas aeruginosa; experiment: Antibacterial activity against beta-lactamase IMP-13 producing Pseudomonas aeruginosa isolate 14; assay type: functional
[36] = tested on: Pseudomonas aeruginosa; experiment: Antibacterial activity against beta-lactamase IMP-13 producing Pseudomonas aeruginosa isolate 13; assay type: functional

Row | SMILES | MIC [1] [µg/mL] | MIC [2] [µg/mL] | inhibition zone (IZ) [3] [mm] | inhibition zone (IZ) [4] [mm] | inhibition zone (IZ) [5] [mm] | inhibition zone (IZ) [6] [mm] | MIC [7] [µg/mL] | MIC [8] [µg/mL] | inhibition zone (IZ) [9] [mm] | MIC [10] [µg/mL] | MIC [11] [µg/mL] | MIC [12] [µg/mL] | inhibition zone (IZ) [13] [mm] | inhibition zone (IZ) [14] [mm] | MIC [15] [µg/mL] | inhibition zone (IZ) [16] [mm] | inhibition zone (IZ) [17] [mm] | MIC [18] [µg/mL] | MIC [19] [µg/mL] | inhibition zone (IZ) [20] [mm] | further results
1 | C[C@@H](O)[C@H]1C(=O)N2C(C(=O)O)=C(SCCNC=N)C[C@H]12 [IMIPENEM ANHYDROUS] | 2 (≈ 6.68 µM) | 2 (≈ 6.68 µM) | 21 | 20 | 21 | 7 | 2 (≈ 6.68 µM) | 4 (≈ 13.4 µM) | 6 | 2 (≈ 6.68 µM) | 32 (≈ 107 µM) | 2 (≈ 6.68 µM) | 21 | 20 | 2 (≈ 6.68 µM) | 18 | 6 | 2 (≈ 6.68 µM) | 4 (≈ 13.4 µM) | 6 | inhibition zone (IZ) [21]: 21 mm; inhibition zone (IZ) [22]: 21 mm; inhibition zone (IZ) [23]: 20 mm; inhibition zone (IZ) [24]: 20 mm; MIC [25]: 2 µg/mL (≈ 6.68 µM); inhibition zone (IZ) [26]: 21 mm; MIC [27]: 2 µg/mL (≈ 6.68 µM); MIC [28]: 2 µg/mL (≈ 6.68 µM); MIC [29]: 32 µg/mL (≈ 107 µM); inhibition zone (IZ) [30]: 21 mm; MIC [31]: 2 µg/mL (≈ 6.68 µM); inhibition zone (IZ) [32]: 18 mm; inhibition zone (IZ) [33]: 21 mm; MIC [34]: 2 µg/mL (≈ 6.68 µM); MIC [35]: 32 µg/mL (≈ 107 µM); MIC [36]: 32 µg/mL (≈ 107 µM)
2 | C[C@@H](O)[C@H]1C(=O)N2C(C(=O)O)=C(S[C@@H]3CN[C@H](C(=O)N(C)C)C3)[C@H](C)[C@H]12 [MEROPENEM] | 4 (≈ 10.4 µM) | 4 (≈ 10.4 µM) | 17 | 16 | 17 | 6 | 4 (≈ 10.4 µM) | 4 (≈ 10.4 µM) | 6 | 2 (≈ 5.22 µM) | 128 (≈ 334 µM) | 4 (≈ 10.4 µM) | 21 | 18 | 4 (≈ 10.4 µM) | 17 | 6 | 2 (≈ 5.22 µM) | 8 (≈ 20.9 µM) | 6 | inhibition zone (IZ) [21]: 21 mm; inhibition zone (IZ) [22]: 17 mm; inhibition zone (IZ) [23]: 20 mm; inhibition zone (IZ) [24]: 16 mm; MIC [25]: 4 µg/mL (≈ 10.4 µM); inhibition zone (IZ) [26]: 19 mm; MIC [27]: 2 µg/mL (≈ 5.22 µM); MIC [28]: 4 µg/mL (≈ 10.4 µM); MIC [29]: 128 µg/mL (≈ 334 µM); inhibition zone (IZ) [30]: 21 mm; MIC [31]: 2 µg/mL (≈ 5.22 µM); inhibition zone (IZ) [32]: 19 mm; inhibition zone (IZ) [33]: 20 mm; MIC [34]: 4 µg/mL (≈ 10.4 µM); MIC [35]: 128 µg/mL (≈ 334 µM); MIC [36]: 128 µg/mL (≈ 334 µM)
